From ChEMBL document CHEMBL1153803, “Parallel synthesis of chiral pentaamines and pyrrolidine containing bis-heterocyclic libraries. Multiple scaffolds with multiple building blocks: a double diversity for the identification of new antitubercular compounds” (Bioorg Med Chem Lett, 2009)
Converted amounts (≈) assume the structure as drawn.

Assays:
[1] = test system: Mycobacterium tuberculosis; test: Antimicrobial activity against Mycobacterium tuberculosis H37Rv ATCC 27294 by microplate Almar blue assay; format: functional
Vero = test: Cytotoxicity against african green monkey Vero cells at after 72 hrs by MTT assay; format: cell-based, Chlorocebus sabaeus
[2] = test system: Mycobacterium tuberculosis; test: Antimicrobial activity against Mycobacterium tuberculosis H37Rv ATCC 27294 at 6.25 ug/mL by broth microdilution assay; format: functional
[3] = Selective index, the ratio of IC50 in the african green monkey Vero cells to the MIC to Mycobacterium tuberculosis H37Rv ATCC 27294; format: functional
[4] = Mycobacterium tuberculosis, H37Rv ATCC 27294, read-out: MIC
[5] = Chlorocebus sabaeus, Vero, 72 h, read-out: IC50

SMILES	MIC [1, 4]	IC50 (Vero; [5])	inhibition at 6.25 µg/mL [2]	MIC [1]	IC50 (Vero; vero)	Selectivity Index [3]
NC[C@H](Cc1ccccc1)NC[C@@H]1CCCN1C[C@H](Cc1ccccc1)NC[C@H](Cc1ccccc1)NCCC12CC3CC(CC(C3)C1)C2	3.13 µg/mL (≈ 4.73 µM)	1.1 µg/mL (≈ 1.66 µM)				
NC[C@H](Cc1ccc2ccccc2c1)NC[C@@H]1CCCN1C[C@H](Cc1ccccc1)NC[C@H](Cc1ccccc1)NCCc1ccccc1	6.25 µg/mL (≈ 9.56 µM)	4.23 µg/mL (≈ 6.47 µM)				
CC1CCC(CN2CCN([C@@H](Cc3ccccc3)CN3CCCC3CN3CCNC[C@@H]3Cc3ccccc3)C[C@@H]2Cc2ccccc2)CC1 (some centres not stated)	6.25 µg/mL (≈ 9.44 µM)	1.39 µg/mL (≈ 2.1 µM)	99%	3.9 µg/mL (≈ 5.89 µM)	0.82 µg/mL (≈ 1.24 µM)	0.21
NC[C@H](Cc1ccccc1)NC[C@@H]1CCCN1C[C@H](Cc1ccccc1)NC[C@H](Cc1ccccc1)NCC12CC3CC(CC(C3)C1)C2	6.25 µg/mL (≈ 9.65 µM)					
NC[C@H](Cc1ccccc1)NC[C@@H]1CCCN1C[C@H](Cc1ccccc1)NC[C@H](Cc1ccccc1)NCC1CCCC1	6.25 µg/mL (≈ 10.7 µM)					
NC[C@H](Cc1ccccc1)NC[C@@H]1CCCN1C[C@H](Cc1ccccc1)NC[C@H](Cc1ccccc1)NCCCC1CCCC1	6.25 µg/mL (≈ 10.2 µM)					
NC[C@H](Cc1ccccc1)NC[C@@H]1CCCN1C[C@H](Cc1ccccc1)NC[C@H](Cc1ccccc1)NCCC1CCCCC1	6.25 µg/mL (≈ 10.2 µM)	1.05 µg/mL (≈ 1.72 µM)				
CCCCCCCN[C@H](CN[C@@H](Cc1ccccc1)CN1CCC[C@H]1CN[C@H](CN)Cc1ccccc1)Cc1ccccc1	> 6.25 µg/mL					
NC[C@H](Cc1ccccc1)NC[C@@H]1CCCN1C[C@H](Cc1ccccc1)NC[C@H](Cc1ccccc1)NCCc1ccc(-c2ccccc2)cc1	> 6.25 µg/mL					
c1ccc(C[C@H]2CNCCN2C[C@@H]2CCCN2C[C@H](Cc2ccccc2)N2CCN(CC34CC5CC(CC(C5)C3)C4)[C@@H](Cc3ccccc3)C2)cc1	3.9 µg/mL (≈ 5.57 µM)		99%			
S=C1NC[C@H](Cc2ccccc2)N1C[C@@H]1CCCN1C[C@H](Cc1ccccc1)N1C[C@H](Cc2ccccc2)N(CC23CC4CC(CC(C4)C2)C3)C1=S	6.25 µg/mL (≈ 8.54 µM)		98%			
N=C1NC[C@H](Cc2ccccc2)N1C[C@@H]1CCCN1C[C@H](Cc1ccccc1)N1C[C@H](Cc2ccccc2)N(CC23CC4CC(CC(C4)C2)C3)C1=N	3.9 µg/mL (≈ 5.59 µM)		91%			
N=C1NC[C@H](Cc2ccccc2)N1CC1CCCN1C[C@H](Cc1ccccc1)N1C[C@H](Cc2ccccc2)N(CC2CCCCCC2)C1=N (some centres not stated)	3.9 µg/mL (≈ 5.91 µM)	39.5 µg/mL (≈ 59.8 µM)	92%			10.1
N=C1NC[C@H](Cc2ccccc2)N1CC1CCCN1C[C@H](Cc1ccccc1)N1C[C@H](Cc2ccccc2)N(CCc2ccc(Cl)c(Cl)c2)C1=N (some centres not stated)	3.9 µg/mL (≈ 5.4 µM)	24.5 µg/mL (≈ 33.9 µM)	95%			6.3
CCC(C)CN1C(=N)N([C@@H](Cc2ccccc2)CN2CCCC2CN2C(=N)NC[C@@H]2Cc2ccccc2)C[C@@H]1Cc1ccccc1 (some centres not stated)	7.8 µg/mL (≈ 12.6 µM)	36.8 µg/mL (≈ 59.3 µM)	90%			4.7
N=C1NC[C@H](Cc2ccccc2)N1CC1CCCN1C[C@H](Cc1ccccc1)N1C[C@H](Cc2ccccc2)N(CC2CCCC2)C1=N (some centres not stated)	7.8 µg/mL (≈ 12.3 µM)	33.5 µg/mL (≈ 53.1 µM)	93%			4.3
CC(C)[C@H]1CNC(=S)N1CC1CCCN1C[C@H](Cc1ccccc1)N1C[C@H](Cc2ccccc2)N(CCc2ccccc2)C1=S (some centres not stated)			90%			
NC[C@H](Cc1ccccc1)NC[C@@H]1CCCN1C[C@H](Cc1ccccc1)NC[C@H](Cc1ccccc1)NCCCC1CCCCC1	3.13 µg/mL (≈ 5.02 µM)		99%			
OCC(CN1CCN([C@@H](Cc2ccccc2)CN2CCCC2CN2CCNC[C@@H]2Cc2ccccc2)C[C@@H]1Cc1ccccc1)c1ccccc1 (some centres not stated)	20 µg/mL (≈ 29.2 µM)	1.08 µg/mL (≈ 1.57 µM)	99%			
NC[C@H](Cc1ccccc1)NC[C@@H]1CCCN1C[C@H](Cc1ccccc1)NC[C@H](Cc1ccccc1)NCCC1CC2CCC1C2 (some centres not stated)	3.13 µg/mL (≈ 5.03 µM)	1.03 µg/mL (≈ 1.66 µM)				
